Assay results as given in patent US20210251208A1, “COMPOSITION AND METHOD FOR ATTRACTING BED BUGS” (NATTARO LABS AB, priority 2016, published 2021).
Where “and” joins values, the source holds several entries; their conditions need not be identical. Identical values can stand only once. Entries after “also recorded” stand apart in the source; their conditions may differ.

Columns and labels:
bed bugs [1] = experiment: Arena test of baits (52 cm arena, ten bed bugs, 30 minutes); format: in vivo; details: baits formulated using 3 wt % methylcellulose
Description: In these tests bed bugs were placed in an arena and allowed to freely move around while the movement patterns were recorded, including in particular the time that bed bugs spent in proximity to each of the three different stations, each station comprising a bait (test compound) or control.
The arena comprised a round (52 cm diameter) white painted metal tray with a 3.8 cm high rim. Evenly spaced half way between centrum and periphery three holes (3.4 cm diam) were bored. To prevent bed bug escape the rim was painted with Insect-a-Slip (#2871C Fluon, BioQuip Products, Inc. 2321 E, Chadwick St., Rancho Dominguez, Calif. 90220) resulting in a non-porous slippery, surface at the rim of the tray.
Three plastic containers (34 mm diam×7 cm high), each with a net covered hole (18 mm diam) at the bottom to allow airflow, were attached below the holes at the underside of the arena using clay dough. At the start of an experiment the compounds/baits and controls were placed one in each container below the arena. […]
Bed bugs, ten at a time, were introduced in separate vials into the middle of the arena and simultaneously video recording was started. […] At the end of the 30 minutes experimental period, the number of bed bugs in each container, and beneath or at the rim of the convex glass sheet above each container was scored. […] The final position was not recorded during early experiments. […]

[2] = Dynamic headspace collection of volatiles from bait, GC-MS; format: physicochemical; details: abefg 1:1:1:1:1 in gelatine 100 mg/l of each compound
Description: After collection of the enfleurage samples head-space collections were made from each container using a special lid into which an adsorbent plug was inserted. The head-space of all containers in a replicate was collected simultaneously under dark conditions (except the first samples of replicate one) using battery operated membrane pumps. The air-flow through each container was adjusted to 35-40 ml/min. The head-space samples were collected for 2 hours for replicate one to three after the first week, but was extended to 4-6 hours for replicate 4 & 5 and for all replicates and collections after the second week. This was done to secure more material as the first samples were very weak.
The samples were analyzed on a gas chromatograph (GC, Hewlett-Packard 6890 Series) equipped with a polar capillary column (Innowax; 30 m long, 0.25 mm i.d. and film thickness 0.25 μm Agilent Technologies USA) coupled to a mass spectrometer (Hewlett-Packard 5973 Mass Selective Detector). The injector temperature was 225° C. and the injection splitless. The GC temperature was programmed for 2 min at 40° C. followed by a gradual increase of 8°/min to 225° C., where the temperature was held steady for five min. Compounds were identified against the spectra and retention times of authentic reference compounds or in a few cases against the spectral libraries of ADAM and NIST2011.
One of the baits used in the Arena test was placed in a container and the dynamic headspace was collected as described in example 1 and analysed using Gas chromatography-Mass spectroscopy (GC-MS).

bed bugs [3] = experiment: Arena test of individual compounds vs. blend (40 cm arena, synergy); format: in vivo; details: individual compound 100 mg/l in gelatine, five females and five males, N = 10
Description: The following six tests were carried out: arena test of each of the five compounds a, b, e, f, and g individually and a test of the whole blend abefg. The procedure was the following.
Gelatine solutions (lures) each containing a total of 100 mg/l of either (a) E-2-hexenal, (b) E-2-octenal, (e) E-2-hexenoic acid, (f) 2-octenoic acid and (g) 2-hexanone or the combination of the five compounds abefg were prepared.
Five female and five male bedbugs were released into the centre of the arena in a dark room. The arena was lit with infrared light and after an initial 5 min acclimatization bed bugs were released in the middle of the arena and left for 30 minutes during which time their activity was video-recorded using an Infrared light camera coupled to Noldus Ethovision 15 program. At the end of the 30 minutes period, the bed bugs were manually collected and their positions recorded.
After each replicate, the arena was cleaned with 70% ethanol and the position of the compound and controls were shifted. Ten replicates were made with each of the individual compound lures and the whole blend totalling 60 tests comprising 600 bed bugs, 300 females and 300 males. […] This value was subtracted from the number of bed bugs attracted to each lure correcting for the random part in the attraction in each replicate. The corrected values were used to calculate the average number of bed bugs attracted to each individual lure chemical and to the lure blend.

[4] = Stability / shelf-life of baits; format: physicochemical; details: ascorbic acid included in gelatine baits
Description: The inclusion of ascorbic acid was thus subsequently discontinued.

AMOUNT in headspace of bait ([2]; Sample no. 15:209-213) | AMOUNT in headspace of bait ([2]; Sample no. 15:215-219) | AMOUNT in headspace of bait ([2]; Sample no. 15:245.1-5) | AMOUNT in headspace of bait ([2]; Sample no. 16:02.1-5) | AMOUNT in headspace of bait ([2]; Sample no. 16.37-40) | Compound | attractive effect in (initial) Arena tests (bed bugs [1]) | No. of bed bugs at test compound position at end of experiment (average, corrected for random attraction to controls) (bed bugs [3]) | effect of anti-oxidant on baits / shelf-life of the composition [4]
– | – | – | – | – | CCCCC(=O)/C=C/C=O [4-oxo-(E)-2-octenal, 4-Oxo-(E)-2-octenal] | no attractive effect, rather as having a repulsive effect | – | –
914.5 nano gram/hour | 477.6 nano gram/hour | 438.5 nano gram/hour | 405.2 nano gram/hour | 349.9 nano gram/hour | (Z)- & (E)-2-octenal | – | – | –
– | – | – | – | – | CCCCCC=CC(=O)O [(f) E-2-octenic acid, 2-Octenoic acid] | – | 0.35 | –
– | – | – | – | – | O=C1O[C@H]([C@@H](O)CO)C(O)=C1O [ascorbic acid] | – | – | degraded the baits and resulted in lower efficiency of the baits; also recorded: decreased the shelf-life of the composition
0.2 nano gram/hour | 3.1 nano gram/hour | 0 nano gram/hour | 1.4 nano gram/hour | 0.08 nano gram/hour | CCC/C=C/C(=O)O [(e) E-2-hexenoic acid, (E)-2-hexenoic acid] | – | 0.55 | –
0 nano gram/hour | 0.8 nano gram/hour | 0 nano gram/hour | 0 nano gram/hour | 0.01 nano gram/hour | (E)-octenoic acid | – | – | –
– | – | – | – | – | CCC/C=C/C=O [(a) E-2-hexenal, (E)-2-hexenal] | – | slightly deterrent effect and −0.50 | –
– | – | – | – | – | CCCCC/C=C/C=O [(b) E-2-octenal, (E)-2-octenal] | – | 1.35 | –
– | – | – | – | – | CCC(=O)/C=C/C=O [4-Oxo-(E)-2-hexenal] | no attractive effect, rather as having a repulsive effect | – | –

Compound | AMOUNT in headspace of bait ([2]; Sample no. 15:209-213) | AMOUNT in headspace of bait ([2]; Sample no. 15:215-219) | AMOUNT in headspace of bait ([2]; Sample no. 15:245.1-5) | AMOUNT in headspace of bait ([2]; Sample no. 16:02.1-5) | AMOUNT in headspace of bait ([2]; Sample no. 16.37-40) | attractive effect in (initial) Arena tests (bed bugs [1]) | No. of bed bugs at test compound position at end of experiment (average, corrected for random attraction to controls) (bed bugs [3]) | effect of anti-oxidant on baits / shelf-life of the composition [4]
(Z)- & (E)-2-Hexenal | 565.6 nano gram/hour | 234.6 nano gram/hour | 136.3 nano gram/hour | 102.2 nano gram/hour | 258.3 nano gram/hour | – | – | –
CCCCC(C)=O [(g) 2-hexanone, 2-Hexanone] | 429.1 nano gram/hour | 310.3 nano gram/hour | 168.2 nano gram/hour | 76.1 nano gram/hour | 402.0 nano gram/hour | – | 1.35 | –
